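Each compound was tested at five concentrations against cells in 96-well plates for 48 hours. GI50: concentration for 50% inhibition of growth.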 Activity calls are given as the source filed them. Rule as the data show it: active = GI50 up to about 1.1 µM and inactive = higher.
What was measured:
Test in all cases: NCI tumour cell line growth inhibition, 48 h
Malme-3M = test system: Malme-3M
M14 = test system: M14
SR = test system: SR
MOLT-4 = test system: MOLT-4
PC-3 = test system: PC-3
CAKI-1 = test system: CAKI-1
DU-145 = test system: DU-145
UACC-257 = test system: UACC-257
IGROV-1 = test system: IGROV-1
HCT-15 = test system: HCT-15
HL-60 = test system: HL-60
COLO 205 = test system: COLO 205
SF-295 = test system: SF-295
SF-539 = test system: SF-539
RPMI-8226 = test system: RPMI-8226
OVCAR-5 = test system: OVCAR-5
MCF7 = test system: MCF7
SNB-75 = test system: SNB-75
SK-MEL-2 = test system: SK-MEL-2
SNB-19 = test system: SNB-19
SK-OV-3 = test system: SK-OV-3
OVCAR-3 = test system: OVCAR-3
OVCAR-8 = test system: OVCAR-8
Hs-578T = test system: Hs-578T
U-251 = test system: U-251
HOP-92 = test system: HOP-92
NCI/ADR-RES = test system: NCI/ADR-RES
KM12 = test system: KM12
SK-MEL-5 = test system: SK-MEL-5
HCT-116 = test system: HCT-116
LOX IMVI = test system: LOX IMVI
NCI-H460 = test system: NCI-H460
A498 = test system: A498
K562 = test system: K562
786-0 = test system: 786-0
UACC-62 = test system: UACC-62
SF-268 = test system: SF-268
UO-31 = test system: UO-31
CCRF-CEM = test system: CCRF-CEM
HOP-62 = test system: HOP-62
HCC 2998 = test system: HCC 2998
RXF 393 = test system: RXF 393
EKVX = test system: EKVX
ACHN = test system: ACHN
SW-620 = test system: SW-620
NCI-H226 = test system: NCI-H226
SN12C = test system: SN12C
BT-549 = test system: BT-549
MDA-MB-435 = test system: MDA-MB-435
A549 = test system: A549
NCI-H522 = test system: NCI-H522
NCI-H23 = test system: NCI-H23
MDA-N = test system: MDA-N
T47D = test system: T47D
TK-10 = test system: TK-10
OVCAR-4 = test system: OVCAR-4
SK-MEL-28 = test system: SK-MEL-28
HT-29 = test system: HT-29
MDA-MB-231 = test system: MDA-MB-231

## Cc1cc(O)nc2cc3oc4ccccc4c3cc12
Malme-3M
  GI50: > 30.1 µM (inactive)
M14
  GI50: > 100 µM (inactive)
SR
  GI50: 5.96 µM (inactive)
MOLT-4
  GI50: 3.71 µM (inactive)
PC-3
  GI50: > 100 µM (inactive)
CAKI-1
  GI50: > 100 µM (inactive)
DU-145
  GI50: > 100 µM (inactive)
UACC-257
  GI50: > 50.2 µM (inactive)
IGROV-1
  GI50: > 63.7 µM (inactive)
HCT-15
  GI50: > 61.2 µM
HL-60
  GI50: 17.6 µM (inactive)
COLO 205
  GI50: 16.7 µM (inactive)
SF-295
  GI50: > 100 µM (inactive)
SF-539
  GI50: 39.8 µM (inactive)
RPMI-8226
  GI50: 37.9 µM (inactive)
OVCAR-5
  GI50: > 83.2 µM (inactive)
MCF7
  GI50: 4.55 µM (inactive)
SNB-75
  GI50: > 100 µM (inactive)
SK-MEL-2
  GI50: > 100 µM (inactive)
SNB-19
  GI50: > 50.6 µM (inactive)
SK-OV-3
  GI50: > 57.9 µM (inactive)
OVCAR-3
  GI50: > 33.6 µM (inactive)
OVCAR-8
  GI50: > 100 µM (inactive)
Hs-578T
  GI50: 0.562 µM (active)
U-251
  GI50: 17.1 µM (inactive)
HOP-92
  GI50: > 100 µM (inactive)
NCI/ADR-RES
  GI50: > 100 µM (inactive)
KM12
  GI50: 70.1 µM (inactive)
SK-MEL-5
  GI50: 7.52 µM (inactive)
HCT-116
  GI50: 27.5 µM (inactive)
LOX IMVI
  GI50: > 28.2 µM (inactive)
NCI-H460
  GI50: 3.91 µM (inactive)
A498
  GI50: > 100 µM (inactive)
K562
  GI50: 30.9 µM (inactive)
786-0
  GI50: 25.2 µM (inactive)
UACC-62
  GI50: 17.5 µM (inactive)
SF-268
  GI50: 28.1 µM (inactive)
UO-31
  GI50: > 27.5 µM (inactive)
CCRF-CEM
  GI50: 11.5 µM (inactive)
HOP-62
  GI50: > 100 µM (inactive)
HCC 2998
  GI50: 2.72 µM (inactive)
RXF 393
  GI50: > 100 µM (inactive)
EKVX
  GI50: 0.0448 µM (active)
ACHN
  GI50: 24.2 µM (inactive)
SW-620
  GI50: 35.2 µM (inactive)
NCI-H226
  GI50: 15.7 µM (inactive)
SN12C
  GI50: > 100 µM (inactive)
BT-549
  GI50: > 100 µM (inactive)
MDA-MB-435
  GI50: > 88.1 µM (inactive)
A549
  GI50: 7.64 µM (inactive)
NCI-H522
  GI50: 34.1 µM (inactive)
NCI-H23
  GI50: > 68.5 µM (inactive)
MDA-N
  GI50: > 100 µM (inactive)
T47D
  GI50: > 100 µM (inactive)
TK-10
  GI50: 30.6 µM (inactive)
OVCAR-4
  GI50: > 62.2 µM (inactive)
SK-MEL-28
  GI50: > 100 µM (inactive)
HT-29
  GI50: 44.8 µM (inactive)
MDA-MB-231
  GI50: 52 µM (inactive)

## Cc1cccc(NC(=O)O/N=C(\Cl)C(C)C)c1
Malme-3M
  GI50: 2.19 µM (inactive)
M14
  GI50: 4.58 µM (inactive)
SR
  GI50: 1.38 µM (inactive)
MOLT-4
  GI50: 2.15 µM (inactive)
PC-3
  GI50: 16.7 µM (inactive)
CAKI-1
  GI50: 1.74 µM (inactive)
DU-145
  GI50: 18.6 µM (inactive)
UACC-257
  GI50: 17.3 µM (inactive)
IGROV-1
  GI50: 17.5 µM (inactive)
HCT-15
  GI50: 2.25 µM
HL-60
  GI50: 1.94 µM (inactive)
COLO 205
  GI50: 2.01 µM (inactive)
SF-295
  GI50: 17.5 µM (inactive)
SF-539
  GI50: 6.21 µM (inactive)
RPMI-8226
  GI50: 2.96 µM (inactive)
OVCAR-5
  GI50: 19.4 µM (inactive)
MCF7
  GI50: 10 µM (inactive)
SNB-75
  GI50: 18.1 µM (inactive)
SK-MEL-2
  GI50: 17.7 µM (inactive)
SNB-19
  GI50: 20.3 µM (inactive)
SK-OV-3
  GI50: 17.7 µM (inactive)
OVCAR-3
  GI50: 6.15 µM (inactive)
OVCAR-8
  GI50: 19.4 µM (inactive)
Hs-578T
  GI50: 23.1 µM (inactive)
U-251
  GI50: 20.7 µM (inactive)
HOP-92
  GI50: 1.66 µM (inactive)
NCI/ADR-RES
  GI50: 21.3 µM (inactive)
KM12
  GI50: 19.4 µM (inactive)
SK-MEL-5
  GI50: 16.4 µM (inactive)
HCT-116
  GI50: 3.37 µM (inactive)
LOX IMVI
  GI50: 1.83 µM (inactive)
NCI-H460
  GI50: 16.8 µM (inactive)
A498
  GI50: 18.5 µM (inactive)
K562
  GI50: 2.31 µM (inactive)
786-0
  GI50: 2 µM (inactive)
UACC-62
  GI50: 15.9 µM (inactive)
SF-268
  GI50: 20 µM (inactive)
UO-31
  GI50: 16.6 µM (inactive)
CCRF-CEM
  GI50: 0.847 µM (active)
HOP-62
  GI50: 19 µM (inactive)
HCC 2998
  GI50: 19.1 µM (inactive)
RXF 393
  GI50: 13.9 µM (inactive)
EKVX
  GI50: 6.03 µM (inactive)
ACHN
  GI50: 2.02 µM (inactive)
SW-620
  GI50: 2.19 µM (inactive)
NCI-H226
  GI50: 18.6 µM (inactive)
SN12C
  GI50: 3.37 µM (inactive)
BT-549
  GI50: 5.45 µM (inactive)
MDA-MB-435
  GI50: 14.5 µM (inactive)
A549
  GI50: 20.5 µM (inactive)
NCI-H522
  GI50: 1.54 µM (inactive)
NCI-H23
  GI50: 15.1 µM (inactive)
MDA-N
  GI50: 10.5 µM (inactive)
T47D
  GI50: 6.82 µM (inactive)
TK-10
  GI50: 14 µM (inactive)
OVCAR-4
  GI50: 14 µM (inactive)
SK-MEL-28
  GI50: 7.19 µM (inactive)
HT-29
  GI50: 10.4 µM (inactive)
MDA-MB-231
  GI50: 17.9 µM (inactive)

## COc1ccc2nc3cc(Cl)ccc3c(NCCCN(C)CCCNc3ccc4ncn5c6ccccc6c(=O)c3c45)c2c1
Malme-3M
  GI50: 2.69 µM (inactive)
M14
  GI50: 0.558 µM (active)
SR
  GI50: 0.019 µM (active)
MOLT-4
  GI50: 0.00264 µM (active)
PC-3
  GI50: 0.547 µM (active)
CAKI-1
  GI50: 0.184 µM (active)
DU-145
  GI50: 0.587 µM (active)
UACC-257
  GI50: 0.973 µM (active)
IGROV-1
  GI50: 0.0374 µM (active)
HCT-15
  GI50: 0.0476 µM
HL-60
  GI50: 0.0226 µM (active)
COLO 205
  GI50: 0.0391 µM (active)
SF-295
  GI50: 0.169 µM (active)
SF-539
  GI50: 0.0861 µM (active)
RPMI-8226
  GI50: 0.0656 µM (active)
OVCAR-5
  GI50: 3.09 µM (inactive)
MCF7
  GI50: 0.0525 µM (active)
SNB-75
  GI50: 2.38 µM (inactive)
SK-MEL-2
  GI50: 3.3 µM (inactive)
SNB-19
  GI50: 0.269 µM (active)
SK-OV-3
  GI50: 2.72 µM (inactive)
OVCAR-3
  GI50: 1.57 µM (inactive)
OVCAR-8
  GI50: 0.163 µM (active)
Hs-578T
  GI50: 3.99 µM (inactive)
U-251
  GI50: 0.0478 µM (active)
HOP-92
  GI50: 3.26 µM (inactive)
NCI/ADR-RES
  GI50: 1.26 µM (inactive)
KM12
  GI50: 0.123 µM (active)
SK-MEL-5
  GI50: 0.366 µM (active)
HCT-116
  GI50: 0.0025 µM (active)
LOX IMVI
  GI50: 0.116 µM (active)
NCI-H460
  GI50: 0.0157 µM (active)
A498
  GI50: 4.22 µM (inactive)
K562
  GI50: 0.00383 µM (active)
786-0
  GI50: 0.0333 µM (active)
UACC-62
  GI50: 1.92 µM (inactive)
SF-268
  GI50: 0.246 µM (active)
UO-31
  GI50: 0.488 µM (active)
CCRF-CEM
  GI50: 0.228 µM (active)
HOP-62
  GI50: 0.817 µM (active)
HCC 2998
  GI50: 0.0103 µM (active)
RXF 393
  GI50: 0.0536 µM (active)
EKVX
  GI50: 0.637 µM (active)
ACHN
  GI50: 0.0102 µM (active)
SW-620
  GI50: 0.00573 µM (active)
NCI-H226
  GI50: 0.395 µM (active)
SN12C
  GI50: 0.0302 µM (active)
BT-549
  GI50: 0.0822 µM (active)
MDA-MB-435
  GI50: 0.183 µM (active)
A549
  GI50: 0.0321 µM (active)
NCI-H522
  GI50: 0.0264 µM (active)
NCI-H23
  GI50: 1.18 µM (inactive)
MDA-N
  GI50: 0.0817 µM (active)
T47D
  GI50: 4.15 µM (inactive)
TK-10
  GI50: 0.148 µM (active)
OVCAR-4
  GI50: 0.0897 µM (active)
SK-MEL-28
  GI50: 2.61 µM (inactive)
HT-29
  GI50: 0.0025 µM (active)
MDA-MB-231
  GI50: 0.108 µM (active)
